Experimental data as given in patent publication US20210369684A1 (MOUNT TAM THERAPEUTICS, INC., priority 2018, published 2021).
Several values for one entry are separate records, joined by “and”; a condition that tells them apart may be missing. Identical values can stand only once.

Experiments:
[1] = Whole blood concentrations after IP administration to mice (LC-MS/MS); format: in vivo, mouse
Procedure: Shown below are whole blood concentrations following administration of the compound of Formula II to mice. The compound of Formula II was administered to mice at 2 mg/kg or 10 mg/kg for three days and the concentration of the compound in whole blood determined. These determinations were made using protein precipitation, liquid chromatography (LC), and mass spectrometry (MS/MS). Ten μl aliquots of whole blood and matrix calibration standards were distributed in a 96-well plate; 10 μl aliquots of blank matrix for matrix blanks and control blanks were included as controls. Ten μl of water was added to each sample followed by vortexing. One hundred sixty […] of internal standard was added to each sample except the matrix blanks; 160 μl 70:30 water:acetonitrile (ACN) was added to matrix blanks. This was followed by a […]. One hundred fifty μl of the resultant supernatant was then transferred to a new 96-well plate and the samples blown to dryness at 35° C. The resultant product was then reconstituted with 90 μl ACN.

6-OHDA injected mice = test: Anti-TH immunohistochemistry, 6-OHDA-induced neuronal loss (TH-positive somas in SN); format: in vivo, mouse
Procedure: Immunohistochemistry analysis using anti-tyrosine hydroxylase (TH) antibody was also performed to quantify 6-OHDA-induced neuronal loss in mice injected with 6-OHDA and non-injected (control) sides of the brain. […] FIG. 4B presents the mean and standard error of the mean (SEM) as well as statistical analysis of the results.

Formula II Concentrations in Mouse Whole Blood ([1]; 2 mg/kg IP QD x 3 days, Day 1, 1.00 h, individual animals 7, 8, 9): 452 ng/mL and 380 ng/mL and 317 ng/mL
Formula II Concentrations in Mouse Whole Blood, Mean ([1]; 2 mg/kg IP QD x 3 days, Day 1, 1.00 h, mean): 383 ng/mL
Formula II Concentrations in Mouse Whole Blood ([1]; 2 mg/kg IP QD x 3 days, Day 1, 2.00 h, individual animals 7, 8, 9): 415 ng/mL (2×) and 378 ng/mL
Formula II Concentrations in Mouse Whole Blood, Mean ([1]; 2 mg/kg IP QD x 3 days, Day 1, 2.00 h, mean): 403 ng/mL
Formula II Concentrations in Mouse Whole Blood ([1]; 2 mg/kg IP QD x 3 days, Day 1, 6.00 h, individual animals 7, 8, 9): 382 ng/mL and 520 ng/mL and 490 ng/mL
Formula II Concentrations in Mouse Whole Blood, Mean ([1]; 2 mg/kg IP QD x 3 days, Day 1, 6.00 h, mean): 464 ng/mL
Formula II Concentrations in Mouse Whole Blood ([1]; 2 mg/kg IP QD x 3 days, Day 1, 24.0 h, individual animals 7, 8, 9): 12.2 ng/mL and 18.4 ng/mL and 14.7 ng/mL
Formula II Concentrations in Mouse Whole Blood, Mean ([1]; 2 mg/kg IP QD x 3 days, Day 1, 24.0 h, mean): 15.1 ng/mL
Formula II Concentrations in Mouse Whole Blood ([1]; 2 mg/kg IP QD x 3 days, Day 2, 1.00 h, individual animals 7, 8, 9): 481 ng/mL and 208 ng/mL and 524 ng/mL
Formula II Concentrations in Mouse Whole Blood, Mean ([1]; 2 mg/kg IP QD x 3 days, Day 2, 1.00 h, mean): 404 ng/mL
Formula II Concentrations in Mouse Whole Blood ([1]; 2 mg/kg IP QD x 3 days, Day 2, 2.00 h, individual animals 7, 8, 9): 501 ng/mL and 233 ng/mL and 570 ng/mL
Formula II Concentrations in Mouse Whole Blood, Mean ([1]; 2 mg/kg IP QD x 3 days, Day 2, 2.00 h, mean): 435 ng/mL
Formula II Concentrations in Mouse Whole Blood ([1]; 2 mg/kg IP QD x 3 days, Day 2, 6.00 h, individual animals 7, 8, 9): 553 ng/mL and 632 ng/mL and 552 ng/mL
Formula II Concentrations in Mouse Whole Blood, Mean ([1]; 2 mg/kg IP QD x 3 days, Day 2, 6.00 h, mean): 579 ng/mL
Formula II Concentrations in Mouse Whole Blood ([1]; 2 mg/kg IP QD x 3 days, Day 2, 24.0 h, individual animals 7, 8, 9): 15.3 ng/mL and 80.6 ng/mL and 35.2 ng/mL
Formula II Concentrations in Mouse Whole Blood, Mean ([1]; 2 mg/kg IP QD x 3 days, Day 2, 24.0 h, mean): 43.7 ng/mL
Formula II Concentrations in Mouse Whole Blood ([1]; 2 mg/kg IP QD x 3 days, Day 3, 1.00 h, individual animals 7, 8, 9): 628 ng/mL and 726 ng/mL and 600 ng/mL
Formula II Concentrations in Mouse Whole Blood, Mean ([1]; 2 mg/kg IP QD x 3 days, Day 3, 1.00 h, mean): 651 ng/mL
Formula II Concentrations in Mouse Whole Blood ([1]; 2 mg/kg IP QD x 3 days, Day 3, 2.00 h, individual animals 7, 8, 9): 478 ng/mL and 489 ng/mL and 535 ng/mL
Formula II Concentrations in Mouse Whole Blood, Mean ([1]; 2 mg/kg IP QD x 3 days, Day 3, 2.00 h, mean): 501 ng/mL
Formula II Concentrations in Mouse Whole Blood ([1]; 2 mg/kg IP QD x 3 days, Day 3, 6.00 h, individual animals 7, 8, 9): 416 ng/mL and 745 ng/mL and 604 ng/mL
Formula II Concentrations in Mouse Whole Blood, Mean ([1]; 2 mg/kg IP QD x 3 days, Day 3, 6.00 h, mean): 588 ng/mL
Formula II Concentrations in Mouse Whole Blood ([1]; 2 mg/kg IP QD x 3 days, Day 3, 24.0 h, individual animals 7, 8, 9): 17.6 ng/mL and 59.6 ng/mL and 48.6 ng/mL
Formula II Concentrations in Mouse Whole Blood, Mean ([1]; 2 mg/kg IP QD x 3 days, Day 3, 24.0 h, mean): 41.9 ng/mL
Formula II Concentrations in Mouse Whole Blood ([1]; 10 mg/kg IP QD x 3 days, Day 1, 1.00 h, individual animals 10, 11, 12): 560 ng/mL and 641 ng/mL and 769 ng/mL
Formula II Concentrations in Mouse Whole Blood, Mean ([1]; 10 mg/kg IP QD x 3 days, Day 1, 1.00 h, mean): 657 ng/mL
Formula II Concentrations in Mouse Whole Blood ([1]; 10 mg/kg IP QD x 3 days, Day 1, 2.00 h, individual animals 10, 11, 12): 793 ng/mL
Formula II Concentrations in Mouse Whole Blood ([1]; 10 mg/kg IP QD x 3 days, Day 1, 6.00 h, individual animals 10, 11, 12): 1000 ng/mL and 1950 ng/mL and 544 ng/mL
Formula II Concentrations in Mouse Whole Blood, Mean ([1]; 10 mg/kg IP QD x 3 days, Day 1, 6.00 h, mean): 1165 ng/mL
Formula II Concentrations in Mouse Whole Blood ([1]; 10 mg/kg IP QD x 3 days, Day 1, 24.0 h, individual animals 10, 11, 12): 222 ng/mL and 181 ng/mL and 210 ng/mL
Formula II Concentrations in Mouse Whole Blood, Mean ([1]; 10 mg/kg IP QD x 3 days, Day 1, 24.0 h, mean): 204 ng/mL
Formula II Concentrations in Mouse Whole Blood ([1]; 10 mg/kg IP QD x 3 days, Day 2, 1.00 h, individual animals 10, 11, 12): 3410 ng/mL and 2970 ng/mL and 546 ng/mL
Formula II Concentrations in Mouse Whole Blood, Mean ([1]; 10 mg/kg IP QD x 3 days, Day 2, 1.00 h, mean): 2309 ng/mL
Formula II Concentrations in Mouse Whole Blood ([1]; 10 mg/kg IP QD x 3 days, Day 2, 2.00 h, individual animals 10, 11, 12): 3670 ng/mL and 3930 ng/mL and 2370 ng/mL
Formula II Concentrations in Mouse Whole Blood, Mean ([1]; 10 mg/kg IP QD x 3 days, Day 2, 2.00 h, mean): 3323 ng/mL
Formula II Concentrations in Mouse Whole Blood ([1]; 10 mg/kg IP QD x 3 days, Day 2, 6.00 h, individual animals 10, 11, 12): 2770 ng/mL and 3390 ng/mL and 609 ng/mL
Formula II Concentrations in Mouse Whole Blood, Mean ([1]; 10 mg/kg IP QD x 3 days, Day 2, 6.00 h, mean): 2256 ng/mL
Formula II Concentrations in Mouse Whole Blood ([1]; 10 mg/kg IP QD x 3 days, Day 2, 24.0 h, individual animals 10, 11, 12): 123 ng/mL and 336 ng/mL and 78.0 ng/mL
Formula II Concentrations in Mouse Whole Blood, Mean ([1]; 10 mg/kg IP QD x 3 days, Day 2, 24.0 h, mean): 179 ng/mL
Formula II Concentrations in Mouse Whole Blood ([1]; 10 mg/kg IP QD x 3 days, Day 3, 1.00 h, individual animals 10, 11, 12): AQL and 3420 ng/mL and 987 ng/mL
Formula II Concentrations in Mouse Whole Blood, Mean ([1]; 10 mg/kg IP QD x 3 days, Day 3, 1.00 h, mean (animal 10 AQL)): 2204 ng/mL
Formula II Concentrations in Mouse Whole Blood ([1]; 10 mg/kg IP QD x 3 days, Day 3, 2.00 h, individual animals 10, 11, 12): 5170 ng/mL and 3650 ng/mL and 777 ng/mL
Formula II Concentrations in Mouse Whole Blood, Mean ([1]; 10 mg/kg IP QD x 3 days, Day 3, 2.00 h, mean): 3199 ng/mL
Formula II Concentrations in Mouse Whole Blood ([1]; 10 mg/kg IP QD x 3 days, Day 3, 6.00 h, individual animals 10, 11, 12): 3330 ng/mL and 2890 ng/mL and 730 ng/mL
Formula II Concentrations in Mouse Whole Blood, Mean ([1]; 10 mg/kg IP QD x 3 days, Day 3, 6.00 h, mean): 2317 ng/mL
Formula II Concentrations in Mouse Whole Blood ([1]; 10 mg/kg IP QD x 3 days, Day 3, 24.0 h, individual animals 10, 11, 12): 223 ng/mL and 323 ng/mL and 124 ng/mL
Formula II Concentrations in Mouse Whole Blood, Mean ([1]; 10 mg/kg IP QD x 3 days, Day 3, 24.0 h, mean): 223 ng/mL
Compound: CO[C@H]1C[C@@H]2CC[C@@H](C)[C@@](O)(C2)C(=O)C(=O)N2CCCC[C@H]2C(=O)O[C@H]([C@H](C)C[C@H]2C[C@H]3C[C@@H]2C[C@@H]3O)CC(=O)[C@H](C)/C=C(\C)[C@@H](O)[C@@H](OC)C(=O)[C@H](C)C[C@H](C)/C=C/C=C/C=C/1C [Formula II, C37-[(1R,2S,4R,5S)-5-hyhroxybicyclo[2.2.1]heptane] rapamycin]
concentrations in whole blood over time (in words) ([1]; 2 mg/kg or 10 mg/kg IP QD for three days, mice): sufficient concentrations in whole blood over time
6-OHDA-induced neuronal loss (TH-positive somas, SN) compared with vehicle control (6-OHDA injected mice; 6-OHDA injected mice, FIG. 4A): decreased 6-OHDA-induced neuronal loss as compared to vehicle control
TH+ neuronal loss, p versus vehicle control (6-OHDA injected mice; one-way ANOVA, FIG. 4B): < 0.01
